From PubChem BioAssay AID330 (DTP/NCI, 2004)
Values joined by “and” are separate entries in the source; they are usually repeats but may differ in a detail not shown here. Identical values can stand only once. Inconclusive results and toxic doses are left out. The calls were made as follows: active = survival T/C of 150% or more; inactive = T/C below 125% in these data.

System: P388 leukemia ip, CD2F1 mice, survival T/C
Assay: NCI In Vivo Anticancer Drug Screen. Data for tumor model P388 Leukemia (intraperitoneal) in CD2F1 (CDF1) mice
Details: endpoint: median survival time, higher = longer survival
Outline: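 Mice carrying the transplanted tumor received test compound or vehicle. Survival was recorded in each group, and the value is the treated-group measurement divided by that of the vehicle-treated control group.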

[1] = dose: 60.0 mg/kg/injection, schedule: Q01DX005 (ip), vehicle: saline with Tween-80
[2] = dose: 120.0 mg/kg/injection, schedule: Q01DX005 (ip), vehicle: saline with Tween-80
[3] = dose: 240.0 mg/kg/injection, schedule: Q01DX005 (ip), vehicle: saline with Tween-80
[4] = dose: 100.0 mg/kg/injection, schedule: Q01DX001 (ip), vehicle: Klucel (hydroxypropylcellulose) (HPC)
[5] = dose: 200.0 mg/kg/injection, schedule: Q01DX001 (ip), vehicle: Klucel (hydroxypropylcellulose) (HPC)
[6] = dose: 50.0 mg/kg/injection, schedule: Q01DX005 (ip), vehicle: Klucel (hydroxypropylcellulose) (HPC)
[7] = dose: 100.0 mg/kg/injection, schedule: Q01DX005 (ip), vehicle: Klucel (hydroxypropylcellulose) (HPC)
[8] = dose: 200.0 mg/kg/injection, schedule: Q01DX005 (ip), vehicle: Klucel (hydroxypropylcellulose) (HPC)
[9] = dose: 50.0 mg/kg/injection, schedule: Q01DX009 (ip), vehicle: saline with Tween-80
[10] = dose: 100.0 mg/kg/injection, schedule: Q01DX009 (ip), vehicle: saline with Tween-80
[11] = dose: 50.0 mg/kg/injection, schedule: Q01DX009 (ip), vehicle: saline
[12] = dose: 50.0 mg/kg/injection, schedule: Q01DX005 (ip), vehicle: saline with Tween-80
[13] = dose: 100.0 mg/kg/injection, schedule: Q01DX005 (ip), vehicle: saline with Tween-80
[14] = dose: 200.0 mg/kg/injection, schedule: Q01DX005 (ip), vehicle: saline with Tween-80
[15] = dose: 100.0 mg/kg/injection, schedule: Q04DX003 (ip), vehicle: saline with Tween-80
[16] = dose: 200.0 mg/kg/injection, schedule: Q04DX003 (ip), vehicle: saline with Tween-80
[17] = dose: 400.0 mg/kg/injection, schedule: Q04DX003 (ip), vehicle: saline with Tween-80
[18] = dose: 50.0 mg/kg/injection, schedule: Q01DX009 (ip), vehicle: Klucel (hydroxypropylcellulose) (HPC)
[19] = dose: 100.0 mg/kg/injection, schedule: Q01DX009 (ip), vehicle: Klucel (hydroxypropylcellulose) (HPC)
[20] = dose: 200.0 mg/kg/injection, schedule: Q01DX009 (ip), vehicle: Klucel (hydroxypropylcellulose) (HPC)
[21] = dose: 60.0 mg/kg/injection, schedule: Q01DX005 (ip), vehicle: saline

Measured: T/C

CCC1CCC2CCOCN2C1 (stereo not given)
inactive: dose: 50.0 mg/kg/injection, schedule: Q01DX005 (ip), vehicle: saline 97 % of control | dose: 100.0 mg/kg/injection, schedule: Q01DX005 (ip), vehicle: saline 94 % of control

c1ccc(C[N+]23CCC(CC2)CC3)cc1
inactive: dose: 3.13 mg/kg/injection, schedule: Q04DX003 (ip), vehicle: saline 95 % of control | dose: 6.25 mg/kg/injection, schedule: Q04DX003 (ip), vehicle: saline 95 % of control | dose: 12.5 mg/kg/injection, schedule: Q04DX003 (ip), vehicle: saline 100 % of control

O=c1ccc2cc(-c3ccncc3)cnc2[nH]1
inactive: dose: 25.0 mg/kg/injection, schedule: Q04DX002 (ip), vehicle: saline with Tween-80 100 % of control | dose: 50.0 mg/kg/injection, schedule: Q04DX002 (ip), vehicle: saline with Tween-80 94 % of control

Cc1cccc(/C(=C\c2ccc([N+](=O)[O-])cc2)C(=O)Nc2ccc(S(=O)(=O)F)c(C)c2)c1
inactive: dose: 60.0 mg/kg/injection, schedule: Q01DX005 (ip), vehicle: Klucel (hydroxypropylcellulose) (HPC) 88 % of control | dose: 120.0 mg/kg/injection, schedule: Q01DX005 (ip), vehicle: Klucel (hydroxypropylcellulose) (HPC) 86 % of control

COC(=O)Cc1ccccc1-n1nccc1S(C)=O (stereo not given)
inactive: [1] 109 % of control | [2] 104 % of control | [3] 106 % of control

CCn1c(Cl)c(C=O)c2ccccc21
inactive: [4] 100 % of control | [5] 92 % of control | dose: 400.0 mg/kg/injection, schedule: Q01DX001 (ip), vehicle: Klucel (hydroxypropylcellulose) (HPC) 95 % of control

CC(=O)O[C@@H]1C[C@@H]2[C@@]3(C)CC[C@@H](OC(=O)CC(=O)O)C(C)(C)[C@@H]3CC[C@@]2(C)[C@]2(C)CCCC([C@]3(C)CC[C@H](C(C)(C)O)O3)[C@@H]12 (stereo not given in full)
inactive: dose: 25.0 mg/kg/injection, schedule: Q01DX005 (ip), vehicle: Klucel (hydroxypropylcellulose) (HPC) 92 % of control | [6] 99 % of control | [7] 92 % of control and 97 % of control | [8] 86 % of control and 98 % of control | dose: 400.0 mg/kg/injection, schedule: Q01DX005 (ip), vehicle: Klucel (hydroxypropylcellulose) (HPC) 91 % of control

N#CCCNNc1ccccc1
inactive: dose: 50.0 mg/kg/injection, schedule: Q01DX001 (ip), vehicle: saline 100 % of control | dose: 100.0 mg/kg/injection, schedule: Q01DX001 (ip), vehicle: saline 106 % of control | dose: 200.0 mg/kg/injection, schedule: Q01DX001 (ip), vehicle: saline 97 % of control

CCCC(C(CC)CN(C)C)N(C)C (stereo not given)
inactive: [9] 101 % of control | [10] 93 % of control

C=CN=NNc1ccccc1
inactive: dose: 100.0 mg/kg/injection, schedule: Q04DX003 (ip), vehicle: saline + Tween-80 + alcohol 105 % of control | dose: 200.0 mg/kg/injection, schedule: Q04DX003 (ip), vehicle: saline + Tween-80 + alcohol 106 % of control | dose: 400.0 mg/kg/injection, schedule: Q04DX003 (ip), vehicle: saline + Tween-80 + alcohol 110 % of control

O=C(NCCN1CCOCC1)c1cc2ccccc2oc1=O
inactive: [1] 93 % of control | [2] 91 % of control | [3] 92 % of control

CN(C)c1ccc(/C=N/c2nc(-c3ccccc3)cs2)cc1
inactive: [11] 115 % of control | dose: 100.0 mg/kg/injection, schedule: Q01DX009 (ip), vehicle: saline 111 % of control | dose: 200.0 mg/kg/injection, schedule: Q01DX009 (ip), vehicle: saline 101 % of control

O=c1c2ccccc2c(=O)c2c1ccc1[nH]c3c(ccc4c(=O)c5ccccc5c(=O)c43)[nH]c12
inactive: [12] 95 % of control | [13] 107 % of control | [14] 104 % of control

CC(=O)OC1CCN(C)CC1CCl (stereo not given)
inactive: dose: 12.5 mg/kg/injection, schedule: Q01DX009 (ip), vehicle: saline 110 % of control | dose: 25.0 mg/kg/injection, schedule: Q01DX009 (ip), vehicle: saline 105 % of control | [11] 105 % of control and 114 % of control

Cc1c2c(c(O)c3sccc13)C(C)(C)OC2=O
inactive: [12] 101 % of control | [13] 99 % of control | [14] 97 % of control

CN1C(=O)C2SC(=NNc3ccccc3)SC1C(=O)N2C
inactive: [15] 106 % of control | [16] 120 % of control | [17] 100 % of control

CC(=O)NC(C=O)C(O)C(O)C(O)C(=O)O (stereo not given)
inactive: dose: 25.0 mg/kg/injection, schedule: Q01DX009 (ip), vehicle: Klucel (hydroxypropylcellulose) (HPC) 107 % of control | [18] 100 % of control | [19] 107 % of control

CCOC(=O)c1ccc(NC(=O)Nc2nc3ccccc3s2)cc1
inactive: dose: 25.0 mg/kg/injection, schedule: Q01DX009 (ip), vehicle: distilled water + Tween-80 97 % of control | dose: 50.0 mg/kg/injection, schedule: Q01DX009 (ip), vehicle: distilled water + Tween-80 97 % of control | dose: 100.0 mg/kg/injection, schedule: Q01DX009 (ip), vehicle: distilled water + Tween-80 90 % of control | dose: 200.0 mg/kg/injection, schedule: Q01DX009 (ip), vehicle: distilled water + Tween-80 90 % of control | dose: 400.0 mg/kg/injection, schedule: Q01DX009 (ip), vehicle: distilled water + Tween-80 90 % of control

Cc1ccccc1N=Nc1ccc(N(CCCl)CCCl)cc1
inactive: dose: 50.0 mg/kg/injection, schedule: Q01DX001 (ip), vehicle: Klucel (hydroxypropylcellulose) (HPC) 100 % of control | [4] 115 % of control | [5] 100 % of control

CSc1cccc(NC(=O)Oc2cccnc2)c1
inactive: [18] 103 % of control | [19] 100 % of control | [20] 100 % of control

CCCCNC(=O)c1ccccc1C(=O)NC1(C(=O)NCCCC)CCCC1
inactive: [12] 101 % of control | [13] 97 % of control | [14] 93 % of control

COc1ccc(NC(=S)Nc2ccccn2)cc1
inactive: [15] 108 % of control | [16] 95 % of control | [17] 112 % of control

CCOC(=O)C(=CNc1cc(OC)cc2cccnc12)C(=O)OCC
inactive: [6] 96 % of control | [7] 88 % of control | [8] 88 % of control

Oc1ccccc1N=Cc1cccs1
inactive: [18] 109 % of control | [19] 105 % of control | [20] 124 % of control

N#CCCCOCCCOCCCOCCCOCCCOCCCC#N
inactive: dose: 8.75 mg/kg/injection, schedule: Q01DX005 (ip), vehicle: saline with Tween-80 102 % of control | dose: 17.5 mg/kg/injection, schedule: Q01DX005 (ip), vehicle: saline with Tween-80 100 % of control | dose: 35.0 mg/kg/injection, schedule: Q01DX005 (ip), vehicle: saline with Tween-80 100 % of control | [12] 121 % of control | dose: 70.0 mg/kg/injection, schedule: Q01DX005 (ip), vehicle: saline with Tween-80 108 % of control | [14] 110 % of control

O=C(C[N+](=O)[O-])c1ccc(Cl)cc1
inactive: [9] 87 % of control | [10] 91 % of control

CC1SC(C)C1=O (stereo not given)
inactive: [21] 109 % of control | dose: 120.0 mg/kg/injection, schedule: Q01DX005 (ip), vehicle: saline 107 % of control | dose: 240.0 mg/kg/injection, schedule: Q01DX005 (ip), vehicle: saline 100 % of control

CNC(C#N)C(C)F (stereo not given)
inactive: dose: 15.0 mg/kg/injection, schedule: Q01DX005 (ip), vehicle: saline 98 % of control | dose: 30.0 mg/kg/injection, schedule: Q01DX005 (ip), vehicle: saline 99 % of control | [21] 99 % of control and 98 % of control

C=C1CC(C)(Cl)C(Cl)CC1/C=C/Cl (stereo not given)
inactive: dose: 1.87 mg/kg/injection, schedule: Q01DX009 (ip), vehicle: saline + alcohol 100 % of control | dose: 3.75 mg/kg/injection, schedule: Q01DX009 (ip), vehicle: saline + alcohol 99 % of control | dose: 7.5 mg/kg/injection, schedule: Q01DX009 (ip), vehicle: saline + alcohol 103 % of control | dose: 15.0 mg/kg/injection, schedule: Q01DX009 (ip), vehicle: saline + alcohol 100 % of control
